Measured values published in paper PMC6534253, “Stereoselective pharmacokinetic and pharmacodynamic analysis of a CNS-active sulphamoylphenyl carbamate derivative” (Journal of Enzyme Inhibition and Medicinal Chemistry, 2019).

Experiments:
[1] = Pharmacokinetics from plasma levels after i.p. administration to rats; format: in vivo, rat; conditions: for Vd/F: read-out: Vss/F
Description: (§1) The pharmacokinetics (PK) of racemic-MSPC and its two individual enantiomers were studied following i.p. (80 mg/kg) to rats and their major PK parameters were estimated.
(§2) The study details were as described previously[8] and plasma and brain levels of racemic-MSPC and it individual enantiomers were monitored at: 20, 40, 60, 90, 120, 160, 180, 200, 220, 260, 320, and 360 min after dosing.
(§3) Plasma and brain concentrations of each compound were quantified by an HPLC assay. The HPLC analysis was performed on a system (2695 Separation Module; Waters, Milford, MA) with a photodiode array UV detector (2996 PDA Detector; Waters, Milford, MA). Conditioned as follows: Kinetex, 5 u EVO C18 100 A, 150*4.6 mm column (Phenomenex®, Torrance, CA). Linear gradients (5–95% acetonitrile content) with H2O (0.1% formic acid) and acetonitrile were used as the eluents with flow rate of 1 ml/min at 20 °C. The compounds and the internal standard were detected at 250 nm. Plasma and brain concentrations of MSPC and its two individual enantiomers were quantified by assay that its extraction method was previously described.
(§4) The PK parameters of each compound were calculated by non-compartmental analysis based on statistical moment theory using the PK software Phoenix Winnonlin Tripos L.P. (Pharsight Co., Mountain View, CA) as previously described. MSPC amount excreted unchanged in the urine was calculated by multiplying its urine concertino by the excreted urine volume for up to 6 h after dosing.

[2] = Pharmacokinetics from brain levels after i.p. administration to rats; format: in vivo, rat; conditions: for AUCbrain: as used in the BPR calculation; for Vd/F: read-out: Vss/F
Description: as §1, §2, §3, §4

[3] = Amount excreted unchanged in urine; format: in vivo, rat; conditions: urine up to 6 h after dosing
Description: MSPC urine concentrations were quantified by the same HPLC assay as its plasma assay.
as §4

hCA I = hCA I (Homo sapiens, UniProt P00915); experiment: Stopped flow CO2 hydrase assay, hCA I; format: biochemical; conditions: for Ki: mean from three assays, stopped flow technique
Sequence of hCA I (P00915 whole entry): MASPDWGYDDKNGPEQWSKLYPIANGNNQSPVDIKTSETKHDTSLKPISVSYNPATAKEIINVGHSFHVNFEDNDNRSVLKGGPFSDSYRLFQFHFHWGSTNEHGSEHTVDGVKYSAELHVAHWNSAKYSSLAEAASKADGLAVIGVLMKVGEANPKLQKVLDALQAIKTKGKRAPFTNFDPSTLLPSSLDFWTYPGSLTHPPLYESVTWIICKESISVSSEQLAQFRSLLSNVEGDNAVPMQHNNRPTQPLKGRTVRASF
Description: (§5) The CA inhibition of MSPC and its individual enantiomers were assessed by a stopped flow CO2 hydrase assay as previously described.

hCA II = hCA II (Homo sapiens, UniProt P00918); experiment: Stopped flow CO2 hydrase assay, hCA II; format: biochemical; conditions: for Ki: mean from three assays, stopped flow technique
Description: as §5

hCA IV = hCA IV (Homo sapiens, UniProt P22748); experiment: Stopped flow CO2 hydrase assay, hCA IV; format: biochemical; conditions: mean from three assays, stopped flow technique
Sequence of hCA IV (P22748 19-312): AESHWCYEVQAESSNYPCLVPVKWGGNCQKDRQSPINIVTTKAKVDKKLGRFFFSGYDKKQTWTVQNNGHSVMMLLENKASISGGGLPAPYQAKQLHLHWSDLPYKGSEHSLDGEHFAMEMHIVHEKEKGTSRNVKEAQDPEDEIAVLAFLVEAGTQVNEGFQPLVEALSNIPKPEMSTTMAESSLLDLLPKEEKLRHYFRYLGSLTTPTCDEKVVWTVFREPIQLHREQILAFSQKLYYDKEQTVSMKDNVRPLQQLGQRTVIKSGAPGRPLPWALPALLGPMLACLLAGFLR
Description: as §5

hCA VII = hCA VII (Homo sapiens, UniProt P43166); experiment: Stopped flow CO2 hydrase assay, hCA VII; format: biochemical; conditions: mean from three assays, stopped flow technique
Sequence of hCA VII (P43166 whole entry): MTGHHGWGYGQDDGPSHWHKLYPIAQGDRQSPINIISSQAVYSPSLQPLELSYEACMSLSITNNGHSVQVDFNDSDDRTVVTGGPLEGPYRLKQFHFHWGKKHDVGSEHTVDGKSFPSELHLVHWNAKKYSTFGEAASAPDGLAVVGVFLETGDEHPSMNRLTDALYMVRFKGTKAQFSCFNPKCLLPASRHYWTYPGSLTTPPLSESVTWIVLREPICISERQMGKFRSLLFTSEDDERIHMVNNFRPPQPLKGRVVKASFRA
Description: as §5

Water solubility = format: physicochemical
[4] = system: maximal electroshock seizure (MES); design: method as in PMID 28275953; conditions: cited from earlier work
[5] = system: maximal electroshock seizure (MES); experiment: Rat maximal electroshock (MES) anticonvulsant test; format: in vivo
From the text: The experiments at the MES model were done in male Sprague-Dawley rats (8 rats per dose) weighing 100−120 g (Charles River Laboratories, Wilmington, MA) as previously described.

[6] = rat, ip, plasma, i.p. 80 mg/kg, mean
[7] = rat, plasma, ip, 80 mg/kg, as used in the BPR calculation, i.p. 80 mg/kg, read-out: AUCplasma
[8] = rat, plasma, ip, 80 mg/kg, plasma, i.p. 80 mg/kg, mean, read-out: AUC
[9] = rat, ip, brain, rats, i.p. 80 mg/kg, mean
[10] = plasma, i.p. 80 mg/kg, mean, listed as (R)-enantiomer, 80 mg/kg
[11] = brain, rats, i.p. 80 mg/kg, mean, listed as (R)-enantiomer, 80 mg/kg
[12] = brain, rats, i.p. 80 mg/kg, mean, listed as (S)-enantiomer, 80 mg/kg

CCC(C)CCOC(=O)Nc1ccc(S(N)(=O)=O)cc1 (racemic) [MSPC (racemate), 3-Methylpentyl(4-sulphamoylphenyl)carbamate]
half-life [1, 6]: 2.1 h
CL/F ([1]; rat, ip, plasma, i.p. 80 mg/kg, mean, read-out: CL/F (converted)): 11.7 mL/min/kg
Cmax ([1]; rat, ip, plasma, i.p. 80 mg/kg, mean, read-out: Cmax): 10000 ng/mL
Vd/F [1, 6]: 2.2 L/kg
Tmax ([1]; rat, ip, plasma, i.p. 80 mg/kg, mean, read-out: tmax): 1.3 h
AUC [1, 7]: 28500 ng·h/mL
AUC [1, 8]: 29000 ng·h/mL
AUCbrain ([2]; rats, i.p. 80 mg/kg): 52.8
Kp ([2]; rat, brain, ip, AUCbrain/AUCplasma, rats, i.p. 80 mg/kg, read-out: brain-to-plasma-(AUC)-ratio (BPR)): 1.85
half-life [2, 9]: 1.9 h
AUC ([2]; rat, ip, brain, rats, i.p. 80 mg/kg, mean, read-out: AUC): 53000 ng·h/mL
CL/F ([2]; rat, ip, brain, rats, i.p. 80 mg/kg, mean, read-out: CL/F (converted)): 6.67 mL/min/kg
Cmax ([2]; rat, ip, brain, rats, i.p. 80 mg/kg, mean, read-out: Cmax): 18000 ng/mL
Vd/F [2, 9]: 1 L/kg
Tmax ([2]; rat, ip, brain, rats, i.p. 80 mg/kg, mean, read-out: tmax): 1.6 h
dose excreted unchanged in urine [3]: Less than 0.1%
Ki (hCA I): 77 nM
Ki (hCA II): 7.6 nM
Ki (hCA IV): 750 nM
Ki (hCA VII): 351 nM
water solubility (Water solubility): low water solubility
rat-MES-ED50 (i.p.) ([4]; i.p.): 13 mg/kg
rat-MES-ED50 (po) ([4]; po): 28 mg/kg

CC[C@@H](C)CCOC(=O)Nc1ccc(S(N)(=O)=O)cc1 [(R)-MSPC, 3-methylpentyl(4-sulphamoylphenyl)carbamate]
higher clearance ([1]; compared to (S)-MSPC and racemic-MSPC): 29%
plasma exposure compared to (S)-MSPC ([1]; i.p. 80 mg/kg): 78%
AUC [1, 10]: 23 mg/L/h
CL/F [1, 10]: 15 mL/min/kg
Cmax [1, 10]: 10000 ng/mL
Tmax [1, 10]: 1.0 h
Vss/F [1, 10]: 3.2 l/kg^−1
t1/2 [1, 10]: 2.5 h
brain-to-plasma-(AUC)-ratio (BPR) ([2]; AUCbrain/AUCplasma, rats, i.p. 80 mg/kg, listed as (R)-enantiomer, 80 mg/kg): 2.07
AUC [2, 11]: 47 mg/L/h
CL/F [2, 11]: 6.7 mL/min/kg
Cmax [2, 11]: 16000 ng/mL
Tmax [2, 11]: 1.0 h
Vss/F [2, 11]: 1.4 l/kg^−1
t1/2 [2, 11]: 2.3 h
times higher BPR than its enantiomer ([2]; versus (S)-MSPC): 2.6
rat-MES (po)-ED50 [5]: 30 mg/kg
Ki (hCA I): 34.1 nM
times more effective inhibitor than (S)-MSPC against hCA I (hCA I; ratio of Ki versus (S)-MSPC): 3.8
Ki (hCA II): 3.3 nM
times more effective inhibitor than (S)-MSPC against hCA II (hCA II; ratio of Ki versus (S)-MSPC): 6.1
Ki (hCA IV): 810 nM
Ki (hCA VII): 170 nM

CC[C@H](C)CCOC(=O)Nc1ccc(S(N)(=O)=O)cc1 [(S)-MSPC, 3-methylpentyl(4-sulphamoylphenyl)carbamate]
AUC [1, 7]: 29000 ng·h/mL
half-life ([1]; rat, plasma, ip, 80 mg/kg, i.p. 80 mg/kg, mean): 2.3 h
AUC [1, 8]: 29000 ng·h/mL
CL/F ([1]; rat, plasma, ip, 80 mg/kg, plasma, i.p. 80 mg/kg, mean, read-out: CL/F (converted)): 11.7 mL/min/kg
Cmax ([1]; rat, plasma, ip, 80 mg/kg, plasma, i.p. 80 mg/kg, mean, read-out: Cmax): 7600 ng/mL
Vd/F ([1]; rat, plasma, ip, 80 mg/kg, plasma, i.p. 80 mg/kg, mean): 2.3 L/kg
Tmax ([1]; rat, plasma, ip, 80 mg/kg, plasma, i.p. 80 mg/kg, mean, read-out: tmax): 1.3 h
brain-to-plasma-(AUC)-ratio (BPR) ([2]; AUCbrain/AUCplasma, rats, i.p. 80 mg/kg, listed as (S)-enantiomer, 80 mg/kg): 0.79
AUCbrain ([2]; rats, i.p. 80 mg/kg, listed as (S)−enantiomer, 80 mg/kg): 22.8
AUC [2, 12]: 23 mg/L/h
CL/F [2, 12]: 15 mL/min/kg
Cmax [2, 12]: 7000 ng/mL
Vd/F ([2]; rat, brain, ip, 80 mg/kg, brain, rats, i.p. 80 mg/kg, mean): 2.2 L/kg
Tmax ([2]; rat, brain, ip, 80 mg/kg, brain, rats, i.p. 80 mg/kg, mean, read-out: tmax): 0.6 h
half-life ([2]; rat, brain, ip, 80 mg/kg, rats, i.p. 80 mg/kg, mean): 1.7 h
ED50 ([5]; Rattus norvegicus, po): 24 mg/kg
Ki (hCA I): 130 nM
Ki (hCA II): 20.3 nM
Ki (hCA IV): 593 nM
Ki (hCA VII): 744 nM
